Data on three molecules can be found in patent US4782160A, “1,4-dihydropyridine derivatives” (Yamanouchi Pharmaceutical Co., Ltd., priority 1986, dated 1988).

In series [1] the test system is conscious normotensive rats. Nature of the series: Hypotensive activity: blood pressure and heart rate in conscious normotensive rats after oral administration. The format is in vivo, rat. Here is the method:
The effect of the compound on arterial blood pressure (systolic, SBP mean, MBP diastolic, DBP) and heart rate (HR) was evaluated in conscious normotensive rats (NTR). Four to six days before the experiments, a polyethylene catheter for recording arterial blood pressure was surgically implanted into the thoracic aorta via the carotid artery under ether anesthesia. Arterial blood pressure and heart rate were recorded under freely moving conditions. The test compounds were suspended in 0.5% methylcellulose solution and administered by oral gavage.
Table 2 summarizes the changes in HR, SBP, MBP and DBP of conscious NTR after oral administration of the test compounds.

For series [2] the following is noted: based on calcium antagonistic activity; cited from earlier work.
Series [3] can be described thus: Acute toxicity in mice, intravenous (Up and Down Method). The settings on record: mouse, in vivo, i.v., ICR-SLC mice, n=10. Here is the method: Acute toxicity of the test compound was evaluated according to the method of Brownlee, Hodges and Rosenblatt (The Up and Down Method with Small Samples. J. Am. Stat. As., 48, 262-277, 1953). The […] value of the test compound after intravenous injection to ICR-SLC mice was obtained (Table 3).

For series [4], the target named is [^3 H]-Nitrendipine-labeled calcium channels. The series can be described thus: [3H]-nitrendipine binding assay in rat brain membranes (Ca2+-antagonistic activity). The settings on record: mean of 3 experiments, 95% confidence limits in parenthesis on next line. Here is the method:
1. Ca^2+ -Antagonistic activity:
Ca^2+ -Antagonistic activity of the compound was evaluated in [^3 H]-nitrendipine ([^3 H]-NIT) binding assay.

Take `COC(=O)C1=C(C)NC(C)=C(C(=O)OC)C1c1ccccc1[N+](=O)[O-]` [Nifedipine, reference compound]: the “DBP Change (Δ)” value was -20.9 mmHg in series [1] (3 mg/kg p.o., 0.25 hr, n=8, initial 97 ± 1.8); -19.9 mmHg in series [1] (3 mg/kg p.o., 0.5 hr, n=8, initial 97 ± 1.8); -20.1 mmHg in series [1] (3 mg/kg p.o., 0.75 hr, n=8, initial 97 ± 1.8); -18.9 mmHg in series [1] (3 mg/kg p.o., 1 hr, n=8, initial 97 ± 1.8); -11.8 mmHg in series [1] (3 mg/kg p.o., 1.5 hr, n=8, initial 97 ± 1.8); -9.4 mmHg in series [1] (3 mg/kg p.o., 2 hr, n=8, initial 97 ± 1.8). The “DBP Change (Δ)” value is -2.6 mmHg in series [1] (3 mg/kg p.o., 3 hr, n=8, initial 97 ± 1.8) and 0.9 mmHg in series [1] (3 mg/kg p.o., 4 hr, n=8, initial 97 ± 1.8). Also, the “MBP Change (Δ)” value was -18.7 mmHg in series [1] (3 mg/kg p.o., 0.25 hr, n=8, initial 110 ± 1.8); -19.1 mmHg in series [1] (3 mg/kg p.o., 0.5 hr, n=8, initial 110 ± 1.8); -19.5 mmHg in series [1] (3 mg/kg p.o., 0.75 hr, n=8, initial 110 ± 1.8); -11.5 mmHg in series [1] (3 mg/kg p.o., 1.5 hr, n=8, initial 110 ± 1.8); -9.7 mmHg in series [1] (3 mg/kg p.o., 2 hr, n=8, initial 110 ± 1.8); -3.5 mmHg in series [1] (3 mg/kg p.o., 3 hr, n=8, initial 110 ± 1.8). The “MBP Change (Δ)” value in series [1] (3 mg/kg p.o., 4 hr, n=8, initial 110 ± 1.8) was found to be 0.5 mmHg. Also, the “SBP Change (Δ)” value in series [1] (3 mg/kg p.o., 0.25 hr, n=8, initial 136 ± 2.2) is listed as -14.4 mmHg; in series [1] (3 mg/kg p.o., 0.5 hr, n=8, initial 136 ± 2.2), -17.6 mmHg; in series [1] (3 mg/kg p.o., 0.75 hr, n=8, initial 136 ± 2.2) it was -18.1 mmHg; in series [1] (3 mg/kg p.o., 1 hr, n=8, initial 136 ± 2.2), -17.0 mmHg; in series [1] (3 mg/kg p.o., 1.5 hr, n=8, initial 136 ± 2.2) it was -11.0 mmHg; in series [1] (3 mg/kg p.o., 2 hr, n=8, initial 136 ± 2.2), -10.4 mmHg. For the same molecule, the “SBP Change (Δ)” value in series [1] (3 mg/kg p.o., 3 hr, n=8, initial 136 ± 2.2) was -5.4 mmHg; in series [1] (3 mg/kg p.o., 4 hr, n=8, initial 136 ± 2.2), -0.3 mmHg. The “HR Change (Δ)” value in series [1] (3 mg/kg p.o., 0.25 hr, n=8, initial 349 ± 6.9) is reported as 77.4 beats/min; in series [1] (3 mg/kg p.o., 0.5 hr, n=8, initial 349 ± 6.9), 51.6 beats/min; in series [1] (3 mg/kg p.o., 0.75 hr, n=8, initial 349 ± 6.9) it was 35.4 beats/min; in series [1] (3 mg/kg p.o., 1 hr, n=8, initial 349 ± 6.9), 23.0 beats/min; in series [1] (3 mg/kg p.o., 1.5 hr, n=8, initial 349 ± 6.9), 12.9 beats/min; in series [1] (3 mg/kg p.o., 2 hr, n=8, initial 349 ± 6.9) it was 2.3 beats/min. Besides, the “HR Change (Δ)” value in series [1] (3 mg/kg p.o., 3 hr, n=8, initial 349 ± 6.9) is on record as -20.3 beats/min; in series [1] (3 mg/kg p.o., 4 hr, n=8, initial 349 ± 6.9), -13.4 beats/min. Besides, the “cerebro- and/or coronary vasodilating action” value in series [2] is recorded as “exhibits cerebro- and/or coronary vasodilating action”.
On to `COC(=O)C1=C(C)NC(C)=C(C(=O)OCCN(C)Cc2ccccc2)C1c1cccc([N+](=O)[O-])c1` (centres unmarked) [Nicardipine], for which the “cerebro- and/or coronary vasodilating action” value in series [2] is given as “exhibits cerebro- and/or coronary vasodilating action”.
`COC(=O)C1=C(C)NC(C)=C(C(=O)OC)C1c1cc([N+](=O)[O-])ccc1OCCCCNCCCOc1ccccc1` [Example 1, dimethyl 4-[2-[4-(3-phenoxypropylamino)butoxy]-5-nitrophenyl]-2,6-dimethyl-1,4-dihydropyridine-3,5-dicarboxylate] returned a median lethal dose (LD50) in series [3] of 29 mg/kg. Besides, the “DBP Change (Δ)” value in series [1] (30 mg/kg p.o., 1 hr, n=6, initial 103 ± 3.6) was -13.0 mmHg; in series [1] (30 mg/kg p.o., 2 hr, n=6, initial 103 ± 3.6) it was -21.3 mmHg; in series [1] (30 mg/kg p.o., 3 hr, n=6, initial 103 ± 3.6) it was -25.5 mmHg; in series [1] (30 mg/kg p.o., 4 hr, n=6, initial 103 ± 3.6), -19.0 mmHg; in series [1] (30 mg/kg p.o., 5 hr, n=6, initial 103 ± 3.6) it was -16.7 mmHg; in series [1] (30 mg/kg p.o., 6 hr, n=6, initial 103 ± 3.6), -13.2 mmHg. Also, the “DBP Change (Δ)” value in series [1] (30 mg/kg p.o., 8 hr, n=6, initial 103 ± 3.6) is -12.5 mmHg; in series [1] (30 mg/kg p.o., 10 hr, n=6, initial 103 ± 3.6), -12.3 mmHg; in series [1] (30 mg/kg p.o., 24 hr, n=6, initial 103 ± 3.6), 0.7 mmHg. Besides, the “MBP Change (Δ)” value was -12.1 mmHg in series [1] (30 mg/kg p.o., 1 hr, n=6, initial 114 ± 3.6); -20.0 mmHg in series [1] (30 mg/kg p.o., 2 hr, n=6, initial 114 ± 3.6); -25.1 mmHg in series [1] (30 mg/kg p.o., 3 hr, n=6, initial 114 ± 3.6); -18.9 mmHg in series [1] (30 mg/kg p.o., 4 hr, n=6, initial 114 ± 3.6); -16.5 mmHg in series [1] (30 mg/kg p.o., 5 hr, n=6, initial 114 ± 3.6); -14.4 mmHg in series [1] (30 mg/kg p.o., 6 hr, n=6, initial 114 ± 3.6). The “MBP Change (Δ)” value in series [1] (30 mg/kg p.o., 8 hr, n=6, initial 114 ± 3.6) is on record as -13.5 mmHg; in series [1] (30 mg/kg p.o., 10 hr, n=6, initial 114 ± 3.6) it was -13.1 mmHg; in series [1] (30 mg/kg p.o., 24 hr, n=6, initial 114 ± 3.6) it was 0.7 mmHg. Further, the “SBP Change (Δ)” value is -10.2 mmHg in series [1] (30 mg/kg p.o., 1 hr, n=6, initial 137 ± 3.7); -17.2 mmHg in series [1] (30 mg/kg p.o., 2 hr, n=6, initial 137 ± 3.7); -24.3 mmHg in series [1] (30 mg/kg p.o., 3 hr, n=6, initial 137 ± 3.7); -18.7 mmHg in series [1] (30 mg/kg p.o., 4 hr, n=6, initial 137 ± 3.7); -16.2 mmHg in series [1] (30 mg/kg p.o., 5 hr, n=6, initial 137 ± 3.7); -16.8 mmHg in series [1] (30 mg/kg p.o., 6 hr, n=6, initial 137 ± 3.7). The “SBP Change (Δ)” value in series [1] (30 mg/kg p.o., 8 hr, n=6, initial 137 ± 3.7) is listed as -15.3 mmHg; in series [1] (30 mg/kg p.o., 10 hr, n=6, initial 137 ± 3.7) it was -14.7 mmHg; in series [1] (30 mg/kg p.o., 24 hr, n=6, initial 137 ± 3.7) it was 0.7 mmHg. Moreover, the “HR Change (Δ)” value in series [1] (30 mg/kg p.o., 1 hr, n=6, initial 361 ± 7.7) came to 43.0 beats/min; in series [1] (30 mg/kg p.o., 2 hr, n=6, initial 361 ± 7.7), 77.8 beats/min; in series [1] (30 mg/kg p.o., 3 hr, n=6, initial 361 ± 7.7), 62.2 beats/min; in series [1] (30 mg/kg p.o., 4 hr, n=6, initial 361 ± 7.7) it was 55.0 beats/min; in series [1] (30 mg/kg p.o., 5 hr, n=6, initial 361 ± 7.7), 55.3 beats/min; in series [1] (30 mg/kg p.o., 6 hr, n=6, initial 361 ± 7.7), 30.5 beats/min. Moreover, the “HR Change (Δ)” value in series [1] (30 mg/kg p.o., 8 hr, n=6, initial 361 ± 7.7) amounted to 33.0 beats/min; in series [1] (30 mg/kg p.o., 10 hr, n=6, initial 361 ± 7.7), 22.5 beats/min; in series [1] (30 mg/kg p.o., 24 hr, n=6, initial 361 ± 7.7) it was 28.0 beats/min. Also, the Ki in series [4] stood at 75 nM.
